Consider 15 compounds from US7935702B2, “Substituted biaryl quinolin-4-ylamine analogues” (Neurogen Corporation, priority 2004, dated 2011).

Bounds are passed on as bounds.

T1 sequence (Q8NER1 whole entry): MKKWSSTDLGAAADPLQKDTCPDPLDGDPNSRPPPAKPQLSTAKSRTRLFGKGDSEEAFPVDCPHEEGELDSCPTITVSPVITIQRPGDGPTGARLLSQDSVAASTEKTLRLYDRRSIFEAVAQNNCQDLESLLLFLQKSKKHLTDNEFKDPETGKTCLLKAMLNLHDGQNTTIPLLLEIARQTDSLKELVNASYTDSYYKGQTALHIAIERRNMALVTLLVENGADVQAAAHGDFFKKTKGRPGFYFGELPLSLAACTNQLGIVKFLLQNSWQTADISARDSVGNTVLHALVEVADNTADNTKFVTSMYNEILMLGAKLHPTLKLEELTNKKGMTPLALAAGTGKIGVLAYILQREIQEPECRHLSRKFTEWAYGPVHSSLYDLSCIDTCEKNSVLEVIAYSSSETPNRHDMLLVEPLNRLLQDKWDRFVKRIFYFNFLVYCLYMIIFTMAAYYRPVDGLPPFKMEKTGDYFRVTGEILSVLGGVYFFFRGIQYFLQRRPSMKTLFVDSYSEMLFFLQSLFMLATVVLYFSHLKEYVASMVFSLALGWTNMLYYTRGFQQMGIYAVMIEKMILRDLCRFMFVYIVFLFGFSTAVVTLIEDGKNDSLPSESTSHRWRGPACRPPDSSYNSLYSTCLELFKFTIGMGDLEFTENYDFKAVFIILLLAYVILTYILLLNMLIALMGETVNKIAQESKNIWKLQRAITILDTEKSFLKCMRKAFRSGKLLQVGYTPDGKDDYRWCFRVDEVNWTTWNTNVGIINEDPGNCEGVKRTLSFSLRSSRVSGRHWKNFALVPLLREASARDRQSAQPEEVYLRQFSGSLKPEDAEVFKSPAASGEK

The first experiment concerns the target T1, human capsaicin receptor (Homo sapiens, UniProt Q8NER1).
T1 construct: expressed in transfected cells
The experiment in a line: Calcium mobilization assay, determination of antagonist activity (Example 6). Format: cell-based. To be noted: Table I; IC50 determined as described in Example 6; read-out: IC50. The procedure: A cDNA encoding full length human capsaicin receptor (SEQ ID NO:1, 2 or 3 of U.S. Pat. No. 6,482,611) is subcloned in the plasmid pBK-CMV (Stratagene, La Jolla, Calif.) for recombinant expression in mammalian cells.
Human embryonic kidney (HEK293) cells are transfected with the pBK-CMV expression construct encoding the full length human capsaicin receptor using standard methods. The transfected cells are selected for two weeks in media containing G418 (400 μg/ml) to obtain a pool of stably transfected cells. Independent clones are isolated from this pool by limiting dilution to obtain clonal stable cell lines for use in subsequent experiments.
This Example illustrates representative calcium mobilization assays for use in evaluating test compounds for agonist and antagonist activity.
Cells transfected with expression plasmids (as described in Example 4) and thereby expressing human capsaicin receptor are seeded and grown to 70-90% confluency in FALCON black-walled, clear-bottomed 96-well plates (#3904, BECTON-DICKINSON, Franklin Lakes, N.J.). The culture medium is emptied from the 96 well plates and FLUO-3 AM calcium sensitive dye (Molecular Probes, Eugene, Oreg.) is added to each well (dye solution: 1 mg FLUO-3 AM, 440 μL DMSO and 440 μl 20% pluronic acid in DMSO, diluted 1:250 in Krebs-Ringer HEPES (KRH) buffer (25 mM HEPES, 5 mM KCl, 0.96 mM NaH2PO4, 1 mM MgSO4, 2 mM CaCl2, 5 mM glucose, 1 mM probenecid, pH 7.4), 50 μl diluted solution per well). Plates are covered with aluminum foil and incubated at 37° C. for 1-2 hours in an environment containing 5% CO2. After the incubation, the dye is emptied from the plates, and the cells are washed once with KRH buffer, and resuspended in KRH buffer.
To measure the ability of a test compound to agonize or antagonize a calcium mobilization response in cells expressing capsaicin receptors to capsaicin or other vanilloid agonist, the EC50 of the agonist capsaicin is first determined. An additional 20 μl of KRH buffer and 1 μl DMSO is added to each well of cells, prepared as described above. 100 μl capsaicin in KRH buffer is automatically transferred by the FLIPR instrument to each well. Capsaicin-induced calcium mobilization is monitored using either FLUOROSKAN ASCENT (Labsystems; Franklin, Mass.) or FLIPR (fluorometric imaging plate reader system; Molecular Devices, Sunnyvale, Calif.) instruments. Data obtained between 30 and 60 seconds after agonist application are used to generate an 8-point concentration response curve, with final capsaicin concentrations of 1 nM to 3 μM. KALEIDAGRAPH software (Synergy Software, Reading, Pa.) is used to fit the data to the equation: y=a*(1/(1+(b/x)^c)) to determine the 50% excitatory concentration (EC50) for the response. In this equation, y is the maximum fluorescence signal, x is the concentration of the agonist or antagonist (in this case, capsaicin), a is the Emax, b corresponds to the EC50 value and c is the Hill coefficient. Determination of Agonist Activity
Test compounds are dissolved in DMSO, diluted in 20 μl KRH buffer so that the final concentration of test compounds in the assay well is between 1 μM and 5 μM, and added to cells prepared as described above. The 96 well plates containing prepared cells and test compounds are incubated in the dark, at room temperature for 0.5 to 6 hours. It is important that the incubation not continue beyond 6 hours. Just prior to determining the fluorescence response, 100 μl capsaicin in KRH buffer at twice the EC50 concentration determined as described above is automatically added by the FLIPR instrument to each well of the 96 well plate for a final sample volume of 200 μl and a final capsaicin concentration equal to the EC50. The final concentration of test compounds in the assay wells is between 1 μM and 5 μM. […]
In general terms: Calcium assays in cells follow changes in intracellular calcium, usually with a dye or a luminescent sensor.
Consider `FC(F)(F)c1ccc(Nc2ccnc3nc(-c4nnc(NC5CC5)cc4C(F)(F)F)cnc23)nc1` [compound 104, 3-[6-(cyclopropylamino)-4-(trifluoromethyl)pyridazin-3-yl]-N-[5-(trifluoromethyl)-pyridin-2-yl]pyrido[2,3-b]pyrazin-8-amine], for which the IC50 (as a rule, the concentration that inhibits the measured activity by half) was under 1000 nM.
The same measure, in the same setting: the result for `CCC(CC)Nc1cc(C(F)(F)F)c(-c2cnc3c(Nc4ccc(C(F)(F)F)cn4)ccnc3n2)nn1` [compound 115, 3-{6-[(1-ethylpropyl)amino]-4-(trifluoromethyl)pyridazin-3-yl}-N-[5-(trifluoromethyl)-pyridin-2-yl]pyrido[2,3-b]pyrazin-8-amine] reads under 1000 nM; that for `C[C@@H](O)CNc1cc(C(F)(F)F)c(-c2cnc3c(Nc4ccc(C(F)(F)F)cn4)ccnc3n2)nn1` [compound 125, (R)-1-{[5-(trifluoromethyl)-6-(8-{[5-(trifluoromethyl)-pyridin-2-yl]amino}-pyrido[2,3-b]pyrazin-3-yl)pyridazin-3-yl]amino}propan-2-ol], under 1000 nM.
Still for that read-out and setting: the value for `C[C@H](O)CNc1cc(C(F)(F)F)c(-c2cnc3c(Nc4ccc(C(F)(F)F)cn4)ccnc3n2)nn1` [compound 126, (S)-1-{[5-(trifluoromethyl)-6-(8-{[5-(trifluoromethyl)-pyridin-2-yl]amino}-pyrido[2,3-b]pyrazin-3-yl)pyridazin-3-yl]amino}propan-2-ol] was under 1000 nM; that for `C=CCN(C)c1cc(C(F)(F)F)c(-c2cnc3c(Nc4ccc(C(F)(F)F)cn4)ccnc3n2)nn1` [compound 141, 3-{6-[allyl(methyl)amino]-4-(trifluoromethyl)pyridazin-3-yl}-N-[5-(trifluoromethyl)-pyridin-2-yl]pyrido[2,3-b]pyrazin-8-amine] was under 1000 nM; that for `CC(C)CN(C)c1cc(C(F)(F)F)c(-c2cnc3c(Nc4ccc(C(F)(F)F)cn4)ccnc3n2)nn1` [compound 145, 3-{6-[isobutyl(methyl)amino]-4-(trifluoromethyl)pyridazin-3-yl}-N-[5-(trifluoromethyl)-pyridin-2-yl]pyrido[2,3-b]pyrazin-8-amine] was under 1000 nM.
The same measure, in the same setting: the result for `C=CCN(CC=C)c1cc(C(F)(F)F)c(-c2cnc3c(Nc4ccc(C(F)(F)F)cn4)ccnc3n2)nn1` [compound 150, 3-[6-(diallylamino)-4-(trifluoromethyl)pyridazin-3-yl]-N-[5-(trifluoromethyl)-pyridin-2-yl]pyrido[2,3-b]pyrazin-8-amine] reads under 1000 nM; that for `CCCCN(CC)c1cc(C(F)(F)F)c(-c2cnc3c(Nc4ccc(C(F)(F)F)cn4)ccnc3n2)nn1` [compound 152, 3-{6-[butyl(ethyl)amino]-4-(trifluoromethyl)pyridazin-3-yl}-N-[5-(trifluoromethyl)-pyridin-2-yl]pyrido[2,3-b]pyrazin-8-amine], under 1000 nM.
On to `CCCN(CC1CC1)c1cc(C(F)(F)F)c(-c2cnc3c(Nc4ccc(C(F)(F)F)cn4)ccnc3n2)nn1` [compound 153, 3-{6-[(cyclopropylmethyl)-(propyl)amino]-4-(trifluoro-methyl)pyridazin-3-yl}-N-[5-(trifluoromethyl)pyridin-2-yl]pyrido[2,3-b]pyrazin-8-amine], for which the IC50 was under 1000 nM.
On the same count and under the same terms, the value for `CN(C)CC1CCCCN1c1cc(C(F)(F)F)c(-c2cnc3c(Nc4ccc(C(F)(F)F)cn4)ccnc3n2)nn1` (stereo not drawn) [compound 164, 3-[6-{2-[(dimethylamino)-methyl]piperidin-1-yl}-4-(trifluoromethyl)pyridazin-3-yl)-N-[5-(trifluoromethyl)-pyridin-2-yl]pyrido[2,3-b]pyrazin-8-amine] was under 1000 nM; that for `O[C@@H]1CCN(c2cc(C(F)(F)F)c(-c3cnc4c(Nc5ccc(C(F)(F)F)cn5)ccnc4n3)nn2)C1` [compound 170, (R)-1-[5-(trifluoromethyl)-6-(8-{[5-(trifluoromethyl)-pyridin-2-yl]amino}-pyrido[2,3-b]pyrazin-3-yl)-pyridazin-3-yl]pyrrolidin-3-ol] was under 1000 nM; that for `CCN(CCCO)c1cc(C(F)(F)F)c(-c2cnc3c(Nc4ccc(C(F)(F)F)cn4)ccnc3n2)nn1` [compound 177, 3-{ethyl[5-(trifluoromethyl)-6-(8-{[5-(trifluoromethyl)-pyridin-2-yl]amino}-pyrido[2,3-b]pyrazin-3-yl)-pyridazin-3-yl]amino}propan-1-ol] was under 1000 nM.
Still for that read-out and setting: the value for `CC(C)N(CCCO)c1cc(C(F)(F)F)c(-c2cnc3c(Nc4ccc(C(F)(F)F)cn4)ccnc3n2)nn1` [compound 178, 3-{isopropyl[5-(trifluoro-methyl)-6-(8-{[5-(trifluoro-methyl)pyridin-2-yl]amino}-pyrido[2,3-b]pyrazin-3-yl)pyridazin-3-yl]amino}propan-1-ol] was under 1000 nM.
For `OC1CN(c2cc(C(F)(F)F)c(-c3cnc4c(Nc5ccc(C(F)(F)F)cn5)ccnc4n3)nn2)C1` [compound 179, 1-[5-(trifluoromethyl)-6-(8-{[5-(trifluoromethyl)pyridin-2-yl]amino}pyrido[2,3-b]pyrazin-3-yl)pyridazin-3-yl]azetidin-3-ol], the IC50 is under 1000 nM.

In a further experiment the target is VR (Homo sapiens, UniProt Q8NER1).
Chain of VR (Q8NER1 whole entry): as above
Assay: not given
To be noted: background; typical value; cited from earlier work.
Take `Cl.Cl.Cl.Cl.Cl.Cl.N.N.N.N.N.N.N.N.N.N.N.N.N.N.[O-2].[O-2].[Ru+3].[Ru+3].[Ru+4]` [ruthenium red]: the Ki (commonly a measure of affinity in units of concentration, obtained from inhibition or displacement) was at least 140000 nM.
